Values of other authors as cited in patent US20170306503A1, “SYNTHETIC ACID COMPOSITIONS ALTERNATIVES TO CONVENTIONAL ACIDS IN THE OIL AND GAS INDUSTRY” (FLUID ENERGY GROUP LTD, priority 2014, published 2017).

Conditions: gas exposure, death in 2-3 minutes

In the case of `Cl` [Hydrogen chloride gas, Hydrogen chloride], the “level at which death can occur” value is given as 1300-2000 PPM.
